Test results as given in ChEMBL document CHEMBL2010637, “Synthesis and evaluation of triazolones as checkpoint kinase 1 inhibitors” (Bioorg Med Chem Lett, 2012).

Tests used:
[1] = Clearance in nude mouse; type: ADME, organism-based; conditions: in vivo
[2] = Volume of distribution at steady state in nude mouse; type: ADME, organism-based; conditions: in vivo, read-out: Vdss
[3] = AUC in nude mouse; type: ADME, organism-based; conditions: plasma
[4] = Half life in nude mouse; type: ADME, organism-based; conditions: in vivo
[5] = Lipophilicity, Log D of the compound; type: physicochemical; conditions: octanol/water

clearance [1]: 33 mL/min/kg
Vd [2]: 3.4 L/kg
AUC [3]: 5.47 µM·h
half-life [4]: 1.8 h
logD [5]: 2.19
Compound: O=c1[nH]nc2cc(CO)c3ccc(-c4ccc[nH]4)cc3n12
